# Assay results reported in patent US20160009752A1, “[…]-OXIMINO-AMINOALKYLETHERS AND PROCESS FOR PREPARATION THEREOF, USEFUL AS ANTIDIABETIC AND […] AGENTS” (COUNCIL OF SCIENTIFIC & INDUSTRIAL RESEARCH, priority 2013, published 2016).
# Columns and labels:
# db/+ mice = assay: OGTT in glucose loaded db/+ mice; type: in vivo
# Procedure: Male C57BL6-db/+ mice (12-18 week old, 18-20 g body weight) were procured from National Animal Laboratory Centre (NALC) of Central Drug Research Institute (CDRI), Lucknow, India Animals were housed in polypropylene cages, in controlled environment (temperature 25±2° C.; humidity 50-60%; light 300 lux at floor level with regular 12 h light-12 h dark cycle; noise level 50 decibel; ventilation 10-15 air changes per hour). They were provided with a standard laboratory diet (Dayal Industry, Barabanki, Lucknow) unless stated otherwise and has free access to water. The mice having fasting blood glucose values varying between 65-80 mg/dl were finally included in this study. Animals were divided into groups consisting of six animals in each. Group one was considered as control group, where as the other groups were termed as experimental groups. Rats of experimental groups were given the desired doses of the test samples i.e. 5, 10, 20, 30 and 50 mg/kg body weight. The test samples were always prepared in the vehicle 1% gum acacia. An oral glucose load of 3.0 g/kg was given to the animals of all the groups 30 min post administration of the test samples/vehicle. Blood glucose levels of the animals of all the groups were again measured at 30, 60, 90 and 120 min post glucose load. Food (not water) was removed from the cages during the experimental period. […] Comparing the AUC of test sample treated to that of control group determined the percent improvement in OGTT by test sample which is termed as anti-hyperglycaemic activity. Statistical comparison between the groups was done by employing Students t test.
# [1] = tested on: STZ-induced diabetic rats; assay: Streptozotocin-induced diabetic rat model (STZ); type: in vivo; conditions: 100 mg/kg
# Procedure: Male albino rats (Sprague Dawley Strain) of body weight 160±20 g were procured from the colony of CDRI Animal House. 4 to 5 animals were kept in one polypropylene cage and acclimatized for one week in the new environment. The animals were made diabetic by injecting streptozotocin (STZ) intraperitoneally to the overnight starved animals at a dose of 60 mg/kg prepared in 100 mM citrate buffer (pH 4.5). Fasting blood glucose level of each animal was measured after 48 hours post STZ injection by Glucostrips (Roche) using Glucometer (ACCU-CHEK II; Roche Diagnostics, USA) and animals showing blood glucose level above 280 mg/dl were considered as diabetic. The diabetic rats with fasting blood glucose values varying between 280-450 mg/dl were included in this study. Animals were divided into groups consisting of five animals in each. Group one was considered as a control group, where as the other groups were termed as experimental groups. Rats of experimental group were usually given 100 mg/kg body weight of the test samples unless stated otherwise and standard drug i.e. metformin, respectively. The test samples and standard drug i.e. metformin was always prepared in the vehicle 1% gum acacia. 30 min post administration of the test samples/vehicle/standard drug, blood glucose levels of the animals of all the groups were measured at 30, 60, 90, 120, 180, 240, 300 and 1440 min. Food (not water) was removed from the cages during the experimental period. A plot was drawn between time and blood glucose levels on x and y axis, respectively and the area under curve (AUC) between 0 to 300 min were calculated of each group. The percent decline in AUC of the experiment group compared to sham treated control group termed as % antihyperglycaemic activity. Statistical comparison between the groups was done by employing Student's ‘t’ test.
# [2] = tested on: sucrose challenged low dosed STZ-induced diabetic rats; assay: Sucrose challenged low dosed streptozotocin-induced diabetic rats (STZ-S); type: in vivo, rat
# Procedure: Fasting blood glucose level of each animal was measured after 48 hours post STZ injection by Glucostrips (Roche) using Glucometer (ACCU-CHEK II; Roche Diagnostics, USA) and animals showing blood glucose level above 280 mg/dl were considered as diabetic. The diabetic rats with fasting blood glucose values varying between […] were included in this study. Animals were divided into groups consisting of five animals in each. Group one was considered as a control group, where as the other groups were termed as experimental groups. […] The test samples and standard drug (Metformin) was always prepared in the vehicle 1% gum acacia. […] Food (not water) was removed from the cages during the experimental period. […] The percent decline in AUC of the experiment group compared to sham treated control group termed as % antihyperglycaemic activity. Statistical analysis between the groups was done by employing Students t test.
structure (smiles),measurement,setting,value
"C/C(=N\OCCN1CCCCC1)[C@H]1CC[C@H]2[C@@H]3CC=C4C[C@@H](O)CC[C@]4(C)[C@H]3CC[C@]12C [Compound 14b, 3β-Hydroxy-pregna-5-en-20-one-O-(2-piperidin-1-yl-ethyl)-oxime]",melting point,,130 to 135 °C
same,% Antihyperglycaemic activity (OGTT improvement),db/+ mice; 5 mg/kg,10.5%
same,% Antihyperglycaemic activity (OGTT improvement),db/+ mice; 10 mg/kg,19.8%
same,% Antihyperglycaemic activity (OGTT improvement),db/+ mice; 20 mg/kg,24.5%
same,% Antihyperglycaemic activity (OGTT improvement),db/+ mice; 30 mg/kg,28.9%
same,% Antihyperglycaemic activity (OGTT improvement),db/+ mice; 50 mg/kg,35.9%
same,"Blood glucose level, 0 min post sucrose load",[1],357.4 ± 17.9 mg/dL
same,"Blood glucose level, 30 min post sucrose load",[1],353.8 ± 6.3 mg/dL
same,"Blood glucose level, 60 min post sucrose load",[1],387.0 ± 20.8 mg/dL
same,"Blood glucose level, 90 min post sucrose load",[1],374.4 ± 23.1 mg/dL
same,"Blood glucose level, 120 min post sucrose load",[1],375.0 ± 20.2 mg/dL
same,"Blood glucose level, 180 min post sucrose load",[1],366.6 ± 16.7 mg/dL
same,"Blood glucose level, 240 min post sucrose load",[1],333.0 ± 11.7 mg/dL
same,"Blood glucose level, 300 min post sucrose load",[1],301.4 ± 12.1 mg/dL
same,"Blood glucose level, 1440 min post sucrose load",[1],408.0 ± 17.1 mg/dL
same,"Blood glucose level, 0 min post sucrose load",[2]; 100 mg/kg,222.0 ± 7.9 mg/dL
same,"Blood glucose level, 30 min post sucrose load",[2]; 100 mg/kg,452.6 ± 18.2 mg/dL
same,"Blood glucose level, 60 min post sucrose load",[2]; 100 mg/kg,524.8 ± 11.2 mg/dL
same,"Blood glucose level, 90 min post sucrose load",[2]; 100 mg/kg,468.2 ± 12.6 mg/dL
same,"Blood glucose level, 120 min post sucrose load",[2]; 100 mg/kg,412.6 ± 5.8 mg/dL
same,"Blood glucose level, 180 min post sucrose load",[2]; 100 mg/kg,345.2 ± 9.2 mg/dL
same,"Blood glucose level, 240 min post sucrose load",[2]; 100 mg/kg,311.6 ± 3.7 mg/dL
same,"Blood glucose level, 300 min post sucrose load",[2]; 100 mg/kg,264.8 ± 8.7 mg/dL
same,"Blood glucose level, 1440 min post sucrose load",[2]; 100 mg/kg,414.8 ± 8.3 mg/dL
same,% Antihyperglycemic activity STZ-S 0-5 hr,[2]; Table 2,28.9%
same,% Antihyperglycemic activity STZ-S 0-24 hr,[2]; Table 2,25.2%
